# Measurements published in PMC4222822, “Discovery and Characterization of a Potent and Selective Inhibitor of Aedes aegypti Inward Rectifier Potassium Channels” (PLoS ONE, 2014).
# Assays:
# 5-HT2B receptor = 5-HT2B receptor (Homo sapiens, UniProt P41595); assay: Radioligand displacement assay, 5-HT2B receptor; format: binding, mammalian; conditions: 10 µM VU625
# AeKir1 = AeKir1 (Aedes aegypti, UniProt L0EQS9); assay: Two-electrode electrophysiology of Xenopus oocytes expressing AeKir1; format: cell-based; conditions: inward current at −140 mV, 95% CI: 2.3–6.3 µM, n = 4–5 oocytes per concentration, read-out: IC50 of AeKir1 current inhibition
# Sequence of AeKir1 (L0EQS9 entry or part of it): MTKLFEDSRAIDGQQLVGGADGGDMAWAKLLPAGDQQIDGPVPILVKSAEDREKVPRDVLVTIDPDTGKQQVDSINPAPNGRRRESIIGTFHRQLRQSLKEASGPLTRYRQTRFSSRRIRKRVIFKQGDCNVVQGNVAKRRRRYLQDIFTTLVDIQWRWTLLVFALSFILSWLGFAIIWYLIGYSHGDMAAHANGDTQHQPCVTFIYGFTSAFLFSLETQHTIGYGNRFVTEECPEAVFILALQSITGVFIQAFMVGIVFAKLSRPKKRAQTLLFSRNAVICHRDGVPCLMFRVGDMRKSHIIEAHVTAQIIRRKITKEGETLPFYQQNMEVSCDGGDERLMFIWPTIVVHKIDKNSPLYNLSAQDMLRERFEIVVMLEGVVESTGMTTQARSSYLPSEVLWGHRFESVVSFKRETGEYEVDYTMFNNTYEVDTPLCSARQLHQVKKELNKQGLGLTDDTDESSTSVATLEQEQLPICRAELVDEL
# Experimental: AeKir1 and AeKir2B channels were expressed heterologously in Xenopus laevis oocytes as described previously. In brief, defolliculated Xenopus oocytes (purchased from Ecocyte Bioscience, Austin, TX) were injected with 10 ng (0.35 ng/nL) of either AeKir1 or AeKir2B cRNA and cultured for 3–7 days in OR3 media at 18°C. Oocytes injected with 28 nl of nuclease-free H2O served as controls.
# All electrophysiological experiments on Xenopus oocytes were performed at room temperature. When present, VU625 was dissolved in solution III or solution V to a final concentration of 0.1, 1, 5, 15, or 50 µM (0.05% DMSO). All solutions were delivered by gravity to a RC-3Z oocyte chamber (Warner Instruments, Hamden, CT) via polyethylene tubing at a flow rate of ∼2 ml/min. Solution changes were made with a Rheodyne Teflon 8-way Rotary valve (Model 5012, Rheodyne, Rohnert Park, CA).
# Electrophysiological recordings from oocytes were conducted as described previously In brief, each oocyte was transferred to the holding chamber under superfusion with solution I and impaled with two conventional-glass microelectrodes backfilled with 3 M KCl (resistances of 0.5–1.5 MΩ) to measure membrane potential (Vm) and whole-cell membrane current (Im), respectively. […] All Vm and Im values were recorded by a Digidata 1440A Data Acquisition System (Molecular Devices) and the Clampex module of pCLAMP. […]
# Kir6.2/SUR1 = biological target: T1, Kir6.2/SUR1 (Homo sapiens, UniProt Q14654); assay: Tl+ flux selectivity assay, Kir6.2/SUR1; format: cell-based; conditions: Kir6.2/SUR1, diazoxide 250 µM; n = 2 independent experiments in triplicate; read-out: Inhibition of Tl+ flux (IC50)
# T1 construct: expressed in transfected cells
# T1 sequence (Q14654 whole entry): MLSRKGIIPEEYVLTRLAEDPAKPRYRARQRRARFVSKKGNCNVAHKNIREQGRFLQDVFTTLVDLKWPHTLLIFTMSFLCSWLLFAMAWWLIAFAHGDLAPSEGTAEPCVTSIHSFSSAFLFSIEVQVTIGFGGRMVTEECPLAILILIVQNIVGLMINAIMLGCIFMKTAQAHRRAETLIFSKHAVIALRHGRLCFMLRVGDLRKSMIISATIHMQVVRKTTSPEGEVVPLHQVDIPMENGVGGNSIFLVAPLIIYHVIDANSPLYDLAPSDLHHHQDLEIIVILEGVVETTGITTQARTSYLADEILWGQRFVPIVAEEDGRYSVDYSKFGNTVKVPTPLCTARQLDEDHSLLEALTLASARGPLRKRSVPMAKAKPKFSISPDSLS
# T1 sequence (Q09428 whole entry partner): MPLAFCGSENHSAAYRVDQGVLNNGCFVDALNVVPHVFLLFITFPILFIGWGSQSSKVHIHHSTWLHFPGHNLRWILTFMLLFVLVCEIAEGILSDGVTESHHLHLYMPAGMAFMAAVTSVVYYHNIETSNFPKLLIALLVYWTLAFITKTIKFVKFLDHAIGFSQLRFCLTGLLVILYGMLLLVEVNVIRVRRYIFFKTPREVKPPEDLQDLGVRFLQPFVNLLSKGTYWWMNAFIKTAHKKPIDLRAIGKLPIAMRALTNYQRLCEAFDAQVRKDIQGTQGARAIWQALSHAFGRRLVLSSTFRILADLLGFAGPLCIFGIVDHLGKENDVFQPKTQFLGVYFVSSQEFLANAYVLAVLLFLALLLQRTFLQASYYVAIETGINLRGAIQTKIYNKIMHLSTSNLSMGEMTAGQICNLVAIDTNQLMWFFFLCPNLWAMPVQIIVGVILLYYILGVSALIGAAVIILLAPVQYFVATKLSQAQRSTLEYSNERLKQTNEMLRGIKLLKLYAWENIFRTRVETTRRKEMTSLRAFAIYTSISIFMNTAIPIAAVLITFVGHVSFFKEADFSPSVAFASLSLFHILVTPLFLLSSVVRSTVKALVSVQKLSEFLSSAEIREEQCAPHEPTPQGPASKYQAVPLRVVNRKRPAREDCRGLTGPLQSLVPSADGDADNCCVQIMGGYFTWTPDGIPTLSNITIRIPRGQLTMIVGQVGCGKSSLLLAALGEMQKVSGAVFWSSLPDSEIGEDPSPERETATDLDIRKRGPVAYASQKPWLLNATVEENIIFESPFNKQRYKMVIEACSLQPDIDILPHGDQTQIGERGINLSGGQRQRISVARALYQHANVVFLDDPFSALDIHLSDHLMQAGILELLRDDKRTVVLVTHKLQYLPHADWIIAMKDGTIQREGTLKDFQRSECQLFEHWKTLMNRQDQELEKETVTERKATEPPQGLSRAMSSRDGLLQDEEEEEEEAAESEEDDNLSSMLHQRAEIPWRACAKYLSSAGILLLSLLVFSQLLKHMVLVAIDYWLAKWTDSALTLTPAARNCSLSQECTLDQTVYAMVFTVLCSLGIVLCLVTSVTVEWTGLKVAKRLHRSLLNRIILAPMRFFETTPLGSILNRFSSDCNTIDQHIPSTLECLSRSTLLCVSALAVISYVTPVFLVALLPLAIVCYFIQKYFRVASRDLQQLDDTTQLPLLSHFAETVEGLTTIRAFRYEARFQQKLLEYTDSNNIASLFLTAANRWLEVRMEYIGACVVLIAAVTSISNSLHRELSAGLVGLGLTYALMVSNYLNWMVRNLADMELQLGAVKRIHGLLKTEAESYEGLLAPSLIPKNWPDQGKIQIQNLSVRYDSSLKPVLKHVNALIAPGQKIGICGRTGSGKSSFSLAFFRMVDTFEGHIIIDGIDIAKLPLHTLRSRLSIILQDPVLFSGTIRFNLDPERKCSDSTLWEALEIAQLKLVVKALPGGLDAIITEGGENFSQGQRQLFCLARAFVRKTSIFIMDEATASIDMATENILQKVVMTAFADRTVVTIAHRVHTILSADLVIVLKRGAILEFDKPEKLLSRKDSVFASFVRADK
# Experimental: [Worded in the source for another target; used here, by the source, with some conditions changed.] Tl^+ flux assays were performed essentially as described previously, [18], [19]. Briefly, stably transfected T-Rex-HEK-293 cells expressing AeKir1 channels were cultured overnight in 384-well plates (20,000 cells/20 µL/well black-walled, clear-bottomed BD PureCoat amine-coated plates (BD, Bedford, MA) with a plating media containing DMEM, 10% dialyzed FBS and 1 µg/mL tetracycline. The next day, the cell culture medium was replaced with a dye-loading solution containing assay buffer (Hanks Balanced Salt Solution with 20 mM HEPES, pH 7.3), 0.01% (w/v) Pluronic F-127 (Life Technologies, Carlsbad, CA), and 1.2 µM of the thallium-sensitive dye Thallos-AM (TEFlabs, Austin, TX). Following 1 hr incubation at room temperature, the dye-loading solution was washed from the plates and replaced with 20 µL/well of assay buffer. […] Tl^+ flux data were analyzed as previously described, [21], [22] using a combination of Excel (Microsoft Corp, Redmond, WA) with XLfit add-in (IDBS, Guildford, Surrey, UK) and OriginPro (OriginLab, Northampton, MA) software. […] The slope of the fluorescence increase beginning 5 s after Tl^+ addition and ending 15 s after Tl^+ addition was calculated.
# Sequence of 5-HT2B receptor (P41595 whole entry): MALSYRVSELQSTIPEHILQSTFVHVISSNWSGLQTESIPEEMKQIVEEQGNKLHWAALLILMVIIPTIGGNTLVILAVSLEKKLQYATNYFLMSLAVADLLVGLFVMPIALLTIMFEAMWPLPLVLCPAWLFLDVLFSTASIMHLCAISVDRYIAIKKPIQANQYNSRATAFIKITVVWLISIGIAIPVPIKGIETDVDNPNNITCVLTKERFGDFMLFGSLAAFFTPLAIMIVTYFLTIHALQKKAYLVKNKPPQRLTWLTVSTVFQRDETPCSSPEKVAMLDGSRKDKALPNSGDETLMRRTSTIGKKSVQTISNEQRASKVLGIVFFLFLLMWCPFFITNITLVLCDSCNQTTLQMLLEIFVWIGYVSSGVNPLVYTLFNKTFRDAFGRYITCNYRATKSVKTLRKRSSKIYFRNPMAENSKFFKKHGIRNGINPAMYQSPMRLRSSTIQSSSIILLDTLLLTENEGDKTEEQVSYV
compound,measurement,setting,value
"CCC(=O)N1c2ccc(S(=O)(=O)Nc3cccc(OC)c3)cc2CC1C (stereo not drawn) [VU625, N-(3-methoxyphenyl)-2-methyl-1-propionylindoline-5-sulfonamide]",radioligand displacement,5-HT2B receptor,69%
same,IC50,AeKir1,3.8 µM
same,IC50,Kir6.2/SUR1,> 30 µM
